How the values were obtained:
rat [1] = conditions: Sub-acute repeat dose toxicity; sprague dawley; Oral; Gavage/Intubation; dose end: 1 month; group: systemic; systemic / clinical chemistry / cholesterol / cholesterol + systemic / clinical chemistry / globulins / globulins + systemic / hematology / …
rat [2] = conditions: Prenatal developmental toxicity study; sprague dawley; Oral; Gavage/Intubation; dose end: 17 GD; group: maternal; reproductive / reproductive performance / estrous cycle / corpora lutea + reproductive / reproductive performance / postimplantation loss / …
rabbit [3] = conditions: Prenatal developmental toxicity study, new zealand white, Oral, Gavage/Intubation, dose end: 19 GD
rabbit [4] = conditions: Prenatal developmental toxicity study, new zealand white, Oral, Gavage/Intubation, dose end: 19 GD; remark: listed apart in the source
rabbit [5] = conditions: Sub-acute dermal toxicity, new zealand white, Topical, dose end: 21 day, group: systemic, systemic / in life observation / clinical signs / erythema + systemic / pathology gross / skin / discolored + systemic / pathology gross / …
rat [6] = conditions: Subchronic oral toxicity in rodents, other, Gavage/Intubation, dose end: 92 day, group: systemic, systemic / in life observation / clinical signs / respiration (rales) + systemic / in life observation / mortality / mortality + systemic / …
rat [7] = conditions: Developmental neurotoxicity study; fischer; Injection; Intraperitoneal; dose end: 30 PND; group: cannot be grouped; systemic / in life observation / body weight / offspring (pup) weight
rat [8] = conditions: Combined chronic toxicity/carcinogenicity, sprague dawley, Oral, Feed, dose end: 2 year, group: systemic
rat [9] = conditions: Subchronic oral toxicity in rodents, sprague dawley, Feed, dose end: 13 week, group: systemic
mouse [10] = conditions: Carcinogenicity, cd1, Oral, Feed, dose end: 78 week, group: systemic
dog [11] = conditions: Subchronic oral toxicity in nonrodent, beagle, Capsule, dose end: 13 week, group: systemic
mouse [12] = conditions: Subchronic oral toxicity in rodents, cd1, Feed, dose end: 13 week, group: systemic
dog [13] = conditions: Chronic toxicity; beagle; Oral; Capsule; dose end: 52 week; group: systemic; systemic / in life observation / clinical signs / excitation + systemic / in life observation / clinical signs / hypersensitivity + systemic…
mouse [14] = conditions: Subchronic oral toxicity in rodents, other, Feed, dose end: 90 day, group: systemic, systemic / in life observation / clinical signs / aggressive behavior + systemic / in life observation / clinical signs / irritability + …
rat [15] = conditions: Prenatal developmental toxicity study, sprague dawley, Oral, Gavage/Intubation, dose end: 15 GD
rat [16] = conditions: Chronic toxicity, sprague dawley, Oral, Gavage/Intubation, dose end: 53 week, group: systemic
rat [17] = conditions: Prenatal developmental toxicity study; sprague dawley; Oral; Gavage/Intubation; dose end: 20 GD; group: maternal; systemic / in life observation / body weight / body weight gain
rat [18] = conditions: Combined chronic toxicity/carcinogenicity, sprague dawley, Oral, Feed, dose end: 24 month, group: systemic
rat [19] = conditions: Multigenerational reproductive toxicity study, sprague dawley, Oral, Feed, dose end: 2 generation
dog [20] = conditions: Chronic toxicity; beagle; Oral; Feed; dose end: 52 week; group: systemic; systemic / clinical chemistry / bilirubin / total bilirubin + systemic / hematology / erythrocyte (rbc) count differential / erythrocyte (…
dog [21] = conditions: Subchronic oral toxicity in nonrodent, beagle, Feed, dose end: 90 day, group: systemic
mouse [22] = conditions: Carcinogenicity, cd1, Oral, Feed, dose end: 18 month, group: systemic
rat [23] = conditions: Subchronic oral toxicity in rodents, sprague dawley, Feed, dose end: 13 week, group: systemic; remark: listed apart in the source
mouse [24] = conditions: Subchronic oral toxicity in rodents, cd1, Feed, dose end: 90 day, group: systemic
[25] = group: developmental, developmental / developmental malformation / bone / domed head + developmental / developmental malformation / brain / hydrocephaly + …
[26] = group: maternal, systemic / in life observation / clinical signs / discharge on cageboard + systemic / in life observation / food consumption / food …
[27] = group: developmental, developmental / developmental malformation / bone / domed head + developmental / developmental malformation / bone / fused + developmental…
[28] = group: maternal, systemic / in life observation / body weight / body weight gain + systemic / in life observation / clinical signs / defecation + systemic / …
[29] = systemic / clinical chemistry / albumin / albumin + systemic / clinical chemistry / albumin-globulin ratio / albumin-globulin ratio + …
[30] = systemic / organ weight / brain / relative to body weight + systemic / organ weight / spleen / absolute + systemic / organ weight / thyroid …
[31] = systemic / clinical chemistry / urea nitrogen / urea nitrogen + systemic / clinical chemistry / aspartate aminotransferase (ast/sgot) / …
[32] = systemic / organ weight / liver / relative to body weight + systemic / pathology microscopic / liver / vacuolization + systemic / in life …
[33] = systemic / in life observation / body weight / body weight gain + systemic / in life observation / clinical signs / anorexia
[34] = systemic / in life observation / body weight / body weight gain + systemic / in life observation / clinical signs / anorexia + systemic / in…
[35] = systemic / in life observation / body weight / body weight gain
[36] = systemic / pathology microscopic / liver / hypertrophy + systemic / pathology microscopic / liver / vacuolization cytoplasmic
[37] = group: developmental, developmental / developmental malformation / bone / incomplete ossification + systemic / in life observation / body weight / fetal weight
[38] = group: maternal, systemic / in life observation / body weight / body weight gain + systemic / in life observation / food consumption / food consumption + …
[39] = systemic / clinical chemistry / alkaline phosphatase (alp/alk) / alkaline phosphatase (alp/alk) + systemic / clinical chemistry / aspartate …
[40] = systemic / hematology / monocytes / monocytes + systemic / in life observation / clinical signs / salivation
[41] = systemic / hematology / erythrocyte (rbc) count differential / erythrocyte (rbc) + systemic / hematology / hematocrit (hct) / hematocrit (…
[42] = group: offspring, developmental / offspring survival late / viability index / viability index
[43] = group: parental, systemic / pathology microscopic / spleen / pigmentation
[44] = group: parental, systemic / pathology microscopic / spleen / pigmentation + systemic / in life observation / body weight / body weight + systemic / in life …
[45] = group: reproductive, reproductive / offspring survival early / birth index / live birth index
[46] = systemic / hematology / heinz body / heinz body + systemic / hematology / hematocrit (hct) / hematocrit (hct) + systemic / hematology / …
[47] = systemic / urinalysis / appearance and color / appearance and color
[48] = systemic / in life observation / mortality / mortality
[49] = systemic / hematology / erythrocyte (rbc) count differential / erythrocyte (rbc) + systemic / hematology / hemoglobin (hgb) / hemoglobin (…
[50] = systemic / in life observation / body weight / body weight gain + systemic / clinical chemistry / alkaline phosphatase (alp/alk) / alkaline …

CC(=O)NC1(c2cccc(F)c2)CCN(CC[C@@]2(c3ccc(Cl)c(Cl)c3)CN(c3ccccc3)C(=O)CO2)CC1.O=C(O)CCC(=O)O
LEL (rat [1]): 200 mg/kg/day
LOAEL (rat [1]): 200 mg/kg/day
NEL (rat [1]): 30 mg/kg/day
NOAEL (rat [1]): 30 mg/kg/day
LEL (rat [2]): 500 mg/kg/day
LOAEL (rat [2]): > 1500 mg/kg/day
NEL (rat [2]): < 500 mg/kg/day
NOAEL (rat [2]): ≥ 1500 mg/kg/day
LEL (rabbit [3]; [25]): 1000 mg/kg/day
LOAEL (rabbit [3]; [25]): 1000 mg/kg/day
NEL (rabbit [3]; [25]): 500 mg/kg/day
NOAEL (rabbit [3]; [25]): 500 mg/kg/day
LEL (rabbit [3]; [26]): 1000 mg/kg/day
LOAEL (rabbit [3]; [26]): 1000 mg/kg/day
NEL (rabbit [3]; [26]): 500 mg/kg/day
NOAEL (rabbit [3]; [26]): 500 mg/kg/day
LEL (rabbit [4]; [27]): 1000 mg/kg/day
LOAEL (rabbit [4]; [27]): 1000 mg/kg/day
NEL (rabbit [4]; [27]): 200 mg/kg/day
NOAEL (rabbit [4]; [27]): 200 mg/kg/day
LEL (rabbit [4]; [28]): 1000 mg/kg/day
LOAEL (rabbit [4]; [28]): 1000 mg/kg/day
NEL (rabbit [4]; [28]): 200 mg/kg/day
NOAEL (rabbit [4]; [28]): 200 mg/kg/day

O=C(CBr)c1ccc(O)cc1 [2-Bromo-4-hydroxyacetophenone]
LEL (rabbit [5]): 20 mg/kg/day
LOAEL (rabbit [5]): 20 mg/kg/day
NEL (rabbit [5]): < 20 mg/kg/day
NOAEL (rabbit [5]): < 20 mg/kg/day
LEL (rat [6]): 30 mg/kg/day
LOAEL (rat [6]): 30 mg/kg/day
NEL (rat [6]): 6 mg/kg/day
NOAEL (rat [6]): 6 mg/kg/day

CN=C1CN(O)C(c2ccccc2)=c2cc(Cl)ccc2=N1 [Chlordiazepoxide]
LEL (rat [7]): 1 mg/kg/day
LOAEL (rat [7]): > 1 mg/kg/day
NEL (rat [7]): < 1 mg/kg/day
NOAEL (rat [7]): ≥ 1 mg/kg/day

N#Cc1nn(-c2c(Cl)cc(C(F)(F)F)cc2Cl)c(N)c1S(=O)C(F)(F)F (stereo unspecified) [Fipronil]
LOAEL (rat [8]; [29]): 0.059 mg/kg/day
NOAEL (rat [8]; [29]): 0.019 mg/kg/day
LEL (rat [8]; [30]): 0.019 mg/kg/day
NEL (rat [8]; [30]): < 0.019 mg/kg/day
LOAEL (rat [9]; systemic / clinical chemistry / protein / protein): 1.93 mg/kg/day
NOAEL (rat [9]; systemic / clinical chemistry / protein / protein + systemic / clinical chemistry / albumin-globulin ratio / albumin-globulin ratio + …): 0.33 mg/kg/day
LEL (rat [9]; [31]): 0.07 mg/kg/day
NEL (rat [9]; [31]): < 0.07 mg/kg/day
LEL (mouse [10]; systemic / organ weight / liver / relative to body weight): 0.055 mg/kg/day
LOAEL (mouse [10]; [32]): 1.18 mg/kg/day
NEL (mouse [10]; [32]): 0.011 mg/kg/day
NOAEL (mouse [10]; [32]): 0.055 mg/kg/day
LEL (dog [11]; [33]): 2 mg/kg/day
LOAEL (dog [11]; [33]): 2 mg/kg/day
NEL (dog [11]; [34]): 0.5 mg/kg/day
NOAEL (dog [11]; [34]): 0.5 mg/kg/day
LOAEL (mouse [12]; [35]): 3.2 mg/kg/day
NOAEL (mouse [12]; systemic / in life observation / body weight / body weight gain + systemic / organ weight / liver / absolute + systemic / organ weight / …): 1.27 mg/kg/day
LEL (mouse [12]; [36]): 0.13 mg/kg/day
NEL (mouse [12]; [36]): < 0.13 mg/kg/day
LEL (dog [13]): 2 mg/kg/day
LOAEL (dog [13]): 2 mg/kg/day
NEL (dog [13]): 0.2 mg/kg/day
NOAEL (dog [13]): 0.2 mg/kg/day
LEL (mouse [14]): 0.32 mg/kg/day
LOAEL (mouse [14]): 0.32 mg/kg/day
NEL (mouse [14]): 0.08 mg/kg/day
NOAEL (mouse [14]): 0.08 mg/kg/day
LOAEL (rat [15]; group: developmental, developmental / developmental malformation / bone / incomplete ossification): 2.5 mg/kg/day
LEL (rat [15]; [37]): 2.5 mg/kg/day
NEL (rat [15]; [37]): 1 mg/kg/day
NOAEL (rat [15]; [37]): 1 mg/kg/day
LEL (rat [15]; [38]): 2.5 mg/kg/day
LOAEL (rat [15]; [38]): 2.5 mg/kg/day
NEL (rat [15]; [38]): 1 mg/kg/day
NOAEL (rat [15]; [38]): 1 mg/kg/day

CO[C@@H]1COCC[C@@H]1[NH2+][C@@H]1CC[C@@](C(=O)N2CCc3ncc(C(F)(F)F)cc3C2)(C(C)C)C1.O=C([O-])CCC(=O)O [MK-812]
LOAEL (rat [16]; [39]): > 80 mg/kg/day
NOAEL (rat [16]; [39]): ≥ 80 mg/kg/day
LEL (rat [16]; [40]): 5 mg/kg/day
NEL (rat [16]; [40]): < 5 mg/kg/day
LEL (rat [17]): 30 mg/kg/day
LOAEL (rat [17]): > 30 mg/kg/day
NEL (rat [17]): 10 mg/kg/day
NOAEL (rat [17]): ≥ 30 mg/kg/day

CCc1ccc(C(=O)NN(C(=O)c2cc(C)cc(C)c2)C(C)(C)C)cc1 [Tebufenozide]
LOAEL (rat [18]; [41]): 48 mg/kg/day
NOAEL (rat [18]; [41]): 5 mg/kg/day
LEL (rat [18]; systemic / pathology gross / ovary / cyst): 6 mg/kg/day
NEL (rat [18]; systemic / pathology gross / ovary / cyst + systemic / organ weight / adrenal gland / relative to body weight + systemic / organ weight / …): 0.6 mg/kg/day
LEL (rat [19]; [42]): 155 mg/kg/day
LOAEL (rat [19]; [42]): > 155 mg/kg/day
NEL (rat [19]; [42]): 11.5 mg/kg/day
NOAEL (rat [19]; [42]): ≥ 155 mg/kg/day
LEL (rat [19]; [43]): 11.5 mg/kg/day
LOAEL (rat [19]; [43]): 11.5 mg/kg/day
NEL (rat [19]; [44]): 0.8 mg/kg/day
NOAEL (rat [19]; [44]): 0.8 mg/kg/day
LEL (rat [19]; [45]): 155 mg/kg/day
LOAEL (rat [19]; [45]): 155 mg/kg/day
NEL (rat [19]; [45]): 11.5 mg/kg/day
NOAEL (rat [19]; [45]): 11.5 mg/kg/day
LEL (dog [20]): 7 mg/kg/day
LOAEL (dog [20]): 7 mg/kg/day
NEL (dog [20]): 1.6 mg/kg/day
NOAEL (dog [20]): 1.6 mg/kg/day
LOAEL (dog [21]; [46]): 20.1 mg/kg/day
NOAEL (dog [21]; [46]): 2.1 mg/kg/day
LEL (dog [21]; [47]): 2.1 mg/kg/day
NEL (dog [21]; [47]): < 2.1 mg/kg/day
LEL (mouse [22]; [48]): 0.8 mg/kg/day
NEL (mouse [22]; [48]): < 0.8 mg/kg/day
LOAEL (mouse [22]; systemic / in life observation / mortality / mortality + systemic / pathology microscopic / spleen / pigmentation + systemic / organ weight…): 78 mg/kg/day
NOAEL (mouse [22]; systemic / pathology microscopic / spleen / pigmentation + systemic / organ weight / spleen / absolute): 7.8 mg/kg/day
LOAEL (rat [23]; [49]): 133 mg/kg/day
NEL (rat [23]; [49]): 1.3 mg/kg/day
NOAEL (rat [23]; [49]): 13.1 mg/kg/day
LEL (rat [23]; systemic / organ weight / testes / relative to body weight): 13.1 mg/kg/day
LEL (mouse [24]; [35]): 35.3 mg/kg/day
LOAEL (mouse [24]; [35]): 35.3 mg/kg/day
NEL (mouse [24]; [50]): 3.4 mg/kg/day
NOAEL (mouse [24]; [50]): 3.4 mg/kg/day

Reference: EPA's ToxRefDB 2
